In US7507727B2, “Substituted quinobenzoxazine analogs and methods of using thereof” (Cylene Pharmaceuticals, Inc., priority 2003, dated 2009):

Columns and labels:
[1] = Subacute study of intravenously administered CX-3543 in dogs (safety and tolerance); assay type: in vivo
Procedure: This study determines the safety and tolerance of CX-3543 at three dose levels administered intravenously once daily to beagle dogs for five consecutive days. Safety parameters were monitored through observation, clinical pathology, and microscopic histopathology assessments. Selected animals also underwent blood sample collection for pharmacokinetic/toxicokinetic evaluation. All animals were also assessed with ECG evaluations to detect heart rhythm and/or conduction abnormalities.
The study was conducted using three (3) test article and one (1) control article group. The control article was the solution (5% dextrose in water) used to dilute the test article prior to administration and was administered at the same volume as the high dose. The test article dosage levels for this study were approximately 12, 3.8, and 1.2 mg/kg. Test and control articles were administered once by intravenous (IV) infusion over approximately a one hour period on five consecutive days. Blood samples for test article blood level analysis was taken as follows (i.e., pk/tk sampling): approximately 1 mL of blood was taken from three male and three female dogs in the low dose group at approximately 20 minutes and 40 minutes from the start of the infusion, and then at the end of infusion (Time 0) and at 5, 10, 15, and 30 minutes, and 1, 2, 4, 8, 12, and 24 hours from the end of the infusion after the first and fifth doses. Also, prior to and immediately after Dose 1 and after Dose 5 for all animals, and for recovery animals prior to necropsy, approximately 5-10 second ECG tracings in a lead II configuration were obtained. Animals were terminated one (1) or 15 days after the last dose. […]
Clinical Pathology: After overnight fasting and prior to the first dose (baseline; all animals) and then prior to each necropsy, blood samples are taken for hematology and clinical chemistry. For hematology assays, blood collected at baseline and prior to necropsy (fasted) are analyzed for erythrocyte count, hematocrit, MCH, leukocyte count, differential WC, MCHC, hemoglobin, MCV, platelet count, PT, and APTT. […]

topoisomerase I = topoisomerase I (Homo sapiens, UniProt P11387); test: Topoisomerase I inhibition; assay type: biochemical
[2] = tested on: panel of cancer cell-lines; test: MTS cell survival assay, panel of cancer cell-lines; assay type: cell-based; conditions: for IC50: MTS
Procedure: The antitumor range of action of CX-3543 was tested in vitro using a panel of cancer cell-lines and evaluated using an MTS cell survival assay. Cells were exposed to CX3543 at various concentrations over a four day period, and IC50 values were calculated. Generally, 2,000 to 5,000 cells were seeded in each well of a 96-well plate and incubated overnight. A serial dilution of testing compounds was added to cells and further incubated for 4 days at 37° C., in a 5% CO2 humidified incubator. The survival cell numbers were evaluated by the MTS method as described in the manufacturer's protocol (Promega). […] In particular examples, IC50 values were measured by Alamar Blue.

[3] = tested on: caspase-3 activation in HCT-116; test: Caspase-3/7 assay; assay type: cell-based; conditions: HCT-116 cells, 24 hr, 1, 3 and 5 uM
Procedure: The following protocol was followed (24 hr). On Day 1, seed 0.015×10^6 HCT-116 cells/50 ul/well. Incubate o/n in 37° C. CO2 incubator. On Day 2, remove 25 ul of medium from wells. Treat HCT-116 cells with 1, 3, 5 uM CX-3543. Treat positive control group with Staurosporin 0.01, 0.1, 1 uM. Keep six negative control wells treated with medium only (add 25 ul of diluted sample to appropriate wells). Incubate for 24 h at 37° C. in a CO2 incubator. On Day 3, prepare Apo-ONE Homogeneous Caspase-3/7 assay reagent (Promega) at 10 ul reagent/1 ml buffer. Add 50 ul of diluted reagent. Incubate one hour at room temp. Measure fluorescence at 485/520.

Sequence of topoisomerase I (P11387 whole entry): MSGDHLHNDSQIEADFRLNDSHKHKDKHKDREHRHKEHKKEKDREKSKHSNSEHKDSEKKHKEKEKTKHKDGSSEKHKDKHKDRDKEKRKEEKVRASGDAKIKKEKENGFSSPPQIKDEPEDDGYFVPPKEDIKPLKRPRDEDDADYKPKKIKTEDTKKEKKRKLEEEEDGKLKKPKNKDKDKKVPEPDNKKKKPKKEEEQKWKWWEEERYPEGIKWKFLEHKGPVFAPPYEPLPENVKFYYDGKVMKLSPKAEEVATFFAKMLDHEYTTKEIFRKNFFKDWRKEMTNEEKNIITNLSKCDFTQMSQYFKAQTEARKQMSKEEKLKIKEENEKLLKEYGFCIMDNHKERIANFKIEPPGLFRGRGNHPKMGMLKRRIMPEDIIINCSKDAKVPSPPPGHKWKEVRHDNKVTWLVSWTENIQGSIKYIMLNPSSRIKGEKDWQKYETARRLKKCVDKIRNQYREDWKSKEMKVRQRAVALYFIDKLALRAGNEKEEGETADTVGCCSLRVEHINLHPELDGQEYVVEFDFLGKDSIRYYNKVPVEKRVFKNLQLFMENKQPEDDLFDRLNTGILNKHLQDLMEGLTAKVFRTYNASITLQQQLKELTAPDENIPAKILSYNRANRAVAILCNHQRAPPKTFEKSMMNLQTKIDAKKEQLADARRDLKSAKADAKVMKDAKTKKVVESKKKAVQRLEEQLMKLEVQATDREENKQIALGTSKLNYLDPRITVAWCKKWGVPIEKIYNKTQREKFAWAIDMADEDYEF

CN1CCCC1CCNC(=O)c1cn2c3c(c(N4CCC(c5cnccn5)C4)c(F)cc3c1=O)Oc1cc3ccccc3cc1-2 (centres unmarked) [CX-3543]
mortality ([1]; dog, in vivo): no mortality | tolerance ([1]; dogs, five consecutive daily doses at 12, 3.8 or 1.2 mg/kg, IV one-hour infusion, except injection-site inflammation and necrosis): toxicologically well tolerated | ECG monitoring ([1]; dogs, pre and post doses 1 and 5): No abnormalities were detected | inhibitory activity against topoisomerase I (topoisomerase I): not to be an inhibitor or poison | IC50 ([2]; 96 h, PC3 (Prostate), 4 days): 3200 nM | IC50 ([2]; Homo sapiens, 786-0, 96 h, 786-O, 4 days): 2100 nM | IC50 ([2]; Homo sapiens, 96 h, A549, 4 days): 2900 nM | IC50 ([2]; Homo sapiens, 96 h, HCT-116 (Colorectal), 4 days): 3300 nM | IC50 ([2]; Homo sapiens, 96 h, HT-29, 4 days): 5500 nM | IC50 ([2]; Homo sapiens, 96 h, HeLa (cervical), 4 days): 3300 nM | IC50 ([2]; Homo sapiens, 96 h, HepG2, 4 days): 2500 nM | IC50 ([2]; Homo sapiens, 96 h, MDA-MB-231 (Breast), 4 days): 2400 nM | IC50 ([2]; Homo sapiens, 96 h, MDA-MB-468 (Breast), 4 days): 1500 nM | IC50 ([2]; Homo sapiens, 96 h, Ramos (Burkitt's Lymphoma), 4 days): 300 nM | IC50 ([2]; Homo sapiens, MIA PaCa-2, 96 h, MiaPaca, 4 days): 2800 nM | IC50 in MTS assays over a broad range of tumor types ([2]; four day exposure): submicromolar to single digit micromolar | caspase-3 levels [3]: dose responsive increase
